# Like-named read-outs stand apart in the source and are kept apart here.
# Biological target: tyrosinase (enzyme EC 1.14.18,1, issue de champignon)
# Assay: Tyrosinase inhibition test (L-dopa to dopachrome, read at 475 nm)
# Assay type: biochemical
# Conditions: for IC50: read-out: CI50 (the source's name)
# Experimental: Mélange A : l'échantillon à tester à différentes concentrations (200 μL), ainsi qu'un "contrôle" (tampon phosphate, pH 6,5), sont incubés pendant 30 minutes à 37°C en présence de tyrosinase (enzyme EC 1.14.18,1, issue de champignon; 200μL, 300 U/mL). Mélange B : 200 μL de L-dopa (2,5 mM) sont additionnés à 400 μL de tampon phosphate (pH 6,5). Après les 30 minutes d'incubation, le mélange A est ajouté au mélange B et la dopachrome produite est mesurée à 475 nm au bout d'une minute […].
# [1] = mushroom tyrosinase 300 U/mL, 30 min preincubation at 37°C, phosphate buffer pH 6,5, L-dopa 2,5 mM, dopachrome at 475 nm, mean with spread, n in cell
SMILES,IC50 [1] [µM],further results
Oc1ccc(C=Cc2cc(O)cc3c2C(c2cc(O)cc(O)c2)C(c2ccc(O)cc2)O3)cc1 (stereo not shown) [VIII],10.4,–
"Oc1ccc(C=Cc2cc(O)cc(O)c2)cc1 [Bloc II, resvératrol, reference compound]",–,IC50 (bounds stated in running text for the tyrosinase inhibition tests under the conditions of the examples): > 60 µM
Oc1ccc(C=Cc2cc(O)cc(O)c2)cc1 [II],61.4,–
"Oc1ccc(/C=C/c2cc(O)cc3c2[C@@H](c2cc(O)cc(O)c2)[C@H](c2ccc(O)cc2)O3)cc1 [Bloc VIII, ε-viniférine]",–,IC50 of the dimer relative to that of the monomer (resvératrol) (tyrosinase inhibition test): < 10 fois

# — patent publication EP1519709B1, “NOVEL COSMETIC APPLICATIONS OF POLYPHENOLS AND DERIVATIVES THEREOF” (Caudalie, priority 2002, dated 2004)
